Experiments:
Assay type in all cases: functional, Homo sapiens
Design in all cases: dose or concentration left out as unconfirmed
Colon cancer organoid [1] = test: Optimized Dual-Glo assay to identify co-culture induced drug vulnerabilities using donated chemical probes and chemogenomics kinase set in O06 CRC organoid and F06 CAF mono and co-culture. […] Cell viability is reported both mono and co-culture models.
Colon cancer organoid [2] = test: Optimized Dual-Glo assay to identify co-culture induced drug vulnerabilities using donated chemical probes and chemogenomics kinase set in O14 CRC organoid and F14 CAF mono and co-culture. […] Cell viability is reported both mono and co-culture models.
Colon cancer organoid [3] = test: Optimized Dual-Glo assay to identify co-culture induced drug vulnerabilities using donated chemical probes and chemogenomics kinase set in O20 CRC organoid and F20 CAF mono and co-culture. […] Cell viability is reported both mono and co-culture models.
[4] = Culture type Co-Culture, Transduced with Lucferase2-P2A-EGFP lentivirus
[5] = Culture type Co-Culture, Transduced with Renilla-dsRed lentivirus
[6] = Culture type Mono-Culture, Transduced with Lucferase2-P2A-EGFP lentivirus
[7] = Culture type Mono-Culture, Transduced with Renilla-dsRed lentivirus

Compound: C[C@H](c1ccnc(Nc2nc3ccc(-c4cc(N(C)C)ncn4)cc3[nH]2)c1)N1CCN(C(=O)CC(F)(F)F)CC1 [BAY-985]
- Cell Viability (Colon cancer organoid [1]; [4]): 134.436%
- Cell Viability (Colon cancer organoid [1]; [5]): 180.071%
- Cell Viability (Colon cancer organoid [1]; [6]): 90.5996%
- Cell Viability (Colon cancer organoid [1]; [7]): 96.3949%
- Cell Viability (Colon cancer organoid [2]; [4]): 122.433%
- Cell Viability (Colon cancer organoid [2]; [5]): 113.895%
- Cell Viability (Colon cancer organoid [2]; [6]): 111.789%
- Cell Viability (Colon cancer organoid [2]; [7]): 77.4572%
- Cell Viability (Colon cancer organoid [3]; [4]): 129.711%
- Cell Viability (Colon cancer organoid [3]; [5]): 125.86%
- Cell Viability (Colon cancer organoid [3]; [6]): 106.931%
- Cell Viability (Colon cancer organoid [3]; [7]): 106.043%

Compound: NS(=O)(=O)c1cc(NC(=O)Cc2ccccc2)ccc1Oc1cccc(Cl)c1 [BAY-1797]
- Cell Viability (Colon cancer organoid [1]; [4]): 120.23%
- Cell Viability (Colon cancer organoid [1]; [5]): 167.635%
- Cell Viability (Colon cancer organoid [1]; [6]): 96.4062%
- Cell Viability (Colon cancer organoid [1]; [7]): 112.706%
- Cell Viability (Colon cancer organoid [2]; [4]): 108.747%
- Cell Viability (Colon cancer organoid [2]; [5]): 112.127%
- Cell Viability (Colon cancer organoid [2]; [6]): 131.361%
- Cell Viability (Colon cancer organoid [2]; [7]): 106.475%
- Cell Viability (Colon cancer organoid [3]; [4]): 89.0927%
- Cell Viability (Colon cancer organoid [3]; [5]): 86.996%
- Cell Viability (Colon cancer organoid [3]; [6]): 102.238%
- Cell Viability (Colon cancer organoid [3]; [7]): 103.793%

Compound: CCc1ccccc1C(=O)Nc1n[nH]c2c(C)c(F)c(C3C(C#N)=C(C)N(C)C(C)=C3C#N)cc12 [BAY-3827]
- Cell Viability (Colon cancer organoid [1]; [4]): 80.578%
- Cell Viability (Colon cancer organoid [1]; [5]): 109.489%
- Cell Viability (Colon cancer organoid [1]; [6]): 83.7184%
- Cell Viability (Colon cancer organoid [1]; [7]): 82.828%
- Cell Viability (Colon cancer organoid [2]; [4]): 89.6646%
- Cell Viability (Colon cancer organoid [2]; [5]): 118.565%
- Cell Viability (Colon cancer organoid [2]; [6]): 81.9788%
- Cell Viability (Colon cancer organoid [2]; [7]): 77.2526%
- Cell Viability (Colon cancer organoid [3]; [4]): 74.4041%
- Cell Viability (Colon cancer organoid [3]; [5]): 157.673%
- Cell Viability (Colon cancer organoid [3]; [6]): 58.8443%
- Cell Viability (Colon cancer organoid [3]; [7]): 110.691%

Compound: Cn1cc(Cl)c2c(Oc3c(F)cc(Nc4cc(Cl)nc(N)n4)cc3F)ccnc21 [BAY-4900]
- Cell Viability (Colon cancer organoid [1]; [4]): 121.536%
- Cell Viability (Colon cancer organoid [1]; [5]): 149.241%
- Cell Viability (Colon cancer organoid [1]; [6]): 59.0633%
- Cell Viability (Colon cancer organoid [1]; [7]): 101.592%
- Cell Viability (Colon cancer organoid [2]; [4]): 109.877%
- Cell Viability (Colon cancer organoid [2]; [5]): 85.9396%
- Cell Viability (Colon cancer organoid [2]; [6]): 108.551%
- Cell Viability (Colon cancer organoid [2]; [7]): 92.3665%
- Cell Viability (Colon cancer organoid [3]; [4]): 91.184%
- Cell Viability (Colon cancer organoid [3]; [5]): 109.2%
- Cell Viability (Colon cancer organoid [3]; [6]): 84.5951%
- Cell Viability (Colon cancer organoid [3]; [7]): 91.9324%

Compound: Cc1c(N2CCCC2)nc2ccc(Br)cc2c1C(=O)NC[C@H](CCC(=O)O)c1ccccc1Cl [BAY-6672]
- Cell Viability (Colon cancer organoid [1]; [4]): 132.373%
- Cell Viability (Colon cancer organoid [1]; [5]): 142.298%
- Cell Viability (Colon cancer organoid [1]; [6]): 78.4477%
- Cell Viability (Colon cancer organoid [1]; [7]): 99.1733%
- Cell Viability (Colon cancer organoid [2]; [4]): 130.472%
- Cell Viability (Colon cancer organoid [2]; [5]): 109.165%
- Cell Viability (Colon cancer organoid [2]; [6]): 108.929%
- Cell Viability (Colon cancer organoid [2]; [7]): 91.644%
- Cell Viability (Colon cancer organoid [3]; [4]): 83.0644%
- Cell Viability (Colon cancer organoid [3]; [5]): 119.315%
- Cell Viability (Colon cancer organoid [3]; [6]): 90.6805%
- Cell Viability (Colon cancer organoid [3]; [7]): 98.6918%

Compound: COc1ccc(Oc2cc(NCCC(F)(F)F)c3ncc(-c4ccc(C(=O)NC5CC5)c(C)c4)n3n2)c(F)c1F [BAY-1217389]
- Cell Viability (Colon cancer organoid [1]; [4]): 5.893%
- Cell Viability (Colon cancer organoid [1]; [5]): 100.303%
- Cell Viability (Colon cancer organoid [1]; [6]): 6.114%
- Cell Viability (Colon cancer organoid [1]; [7]): 52.2962%
- Cell Viability (Colon cancer organoid [2]; [4]): 15.963%
- Cell Viability (Colon cancer organoid [2]; [5]): 131.783%
- Cell Viability (Colon cancer organoid [2]; [6]): 28.3238%
- Cell Viability (Colon cancer organoid [2]; [7]): 88.2574%
- Cell Viability (Colon cancer organoid [3]; [4]): 10.1003%
- Cell Viability (Colon cancer organoid [3]; [5]): 184.891%
- Cell Viability (Colon cancer organoid [3]; [6]): 6.085%
- Cell Viability (Colon cancer organoid [3]; [7]): 72.716%

Compound: CC(=O)N1CCC(c2ccc(C(=O)NC3=NCCN3)cc2C(F)(F)F)CC1 [BI 0054]
- Cell Viability (Colon cancer organoid [1]; [4]): 128.003%
- Cell Viability (Colon cancer organoid [1]; [5]): 143.254%
- Cell Viability (Colon cancer organoid [1]; [6]): 114.863%
- Cell Viability (Colon cancer organoid [1]; [7]): 104.942%
- Cell Viability (Colon cancer organoid [2]; [4]): 129.436%
- Cell Viability (Colon cancer organoid [2]; [5]): 116.761%
- Cell Viability (Colon cancer organoid [2]; [6]): 105.472%
- Cell Viability (Colon cancer organoid [2]; [7]): 102.083%
- Cell Viability (Colon cancer organoid [3]; [4]): 121.714%
- Cell Viability (Colon cancer organoid [3]; [5]): 122.015%
- Cell Viability (Colon cancer organoid [3]; [6]): 116.125%
- Cell Viability (Colon cancer organoid [3]; [7]): 107.845%

Compound: CN(C)C(=O)Cn1cc(-c2nc(C3(c4ccc(-c5cnc(N)nc5)cc4)CC3)no2)cn1 [BI 0153]
- Cell Viability (Colon cancer organoid [1]; [4]): 114.895%
- Cell Viability (Colon cancer organoid [1]; [5]): 116.335%
- Cell Viability (Colon cancer organoid [1]; [6]): 110.704%
- Cell Viability (Colon cancer organoid [1]; [7]): 85.1331%
- Cell Viability (Colon cancer organoid [2]; [4]): 85.1631%
- Cell Viability (Colon cancer organoid [2]; [5]): 102.426%
- Cell Viability (Colon cancer organoid [2]; [6]): 124.477%
- Cell Viability (Colon cancer organoid [2]; [7]): 95.7431%
- Cell Viability (Colon cancer organoid [3]; [4]): 119.435%
- Cell Viability (Colon cancer organoid [3]; [5]): 91.9766%
- Cell Viability (Colon cancer organoid [3]; [6]): 120.102%
- Cell Viability (Colon cancer organoid [3]; [7]): 113.624%

Compound: COc1ccc2c(O[C@@H]3C[C@H]4C(=O)N[C@]5(C(=O)O)CC5/C=C\CCCCC[C@H](NC(=O)OC5CCCC5)C(=O)N4C3)cc(-c3csc(NC(=O)C(C)C)n3)nc2c1C (stereo partly drawn) [BI 1230]
- Cell Viability (Colon cancer organoid [1]; [4]): 113.549%
- Cell Viability (Colon cancer organoid [1]; [5]): 148.301%
- Cell Viability (Colon cancer organoid [1]; [6]): 94.169%
- Cell Viability (Colon cancer organoid [1]; [7]): 100.65%
- Cell Viability (Colon cancer organoid [2]; [4]): 105.071%
- Cell Viability (Colon cancer organoid [2]; [5]): 113.929%
- Cell Viability (Colon cancer organoid [2]; [6]): 106.581%
- Cell Viability (Colon cancer organoid [2]; [7]): 104.774%
- Cell Viability (Colon cancer organoid [3]; [4]): 95.5192%
- Cell Viability (Colon cancer organoid [3]; [5]): 162.279%
- Cell Viability (Colon cancer organoid [3]; [6]): 102.506%
- Cell Viability (Colon cancer organoid [3]; [7]): 120.15%

From ChEMBL document CHEMBL5674860, “Optimized Dual-Glo Assay to identify co-culture-induced drug vulnerabilities in 3D CRC models” (2024)
